Reference: patent US20260151413A1, “ANTICANCER DRUG CONJUGATES” (Ariel Scientific Innovations Ltd., priority 2022, published 2026)

Tests used:
[1] = previous study; cited from earlier work
[2] = tested on: 10 hematological cell-lines; experiment: In vitro cytotoxicity screening on the panel of hematological cell-lines (WST-1); conditions: for effect on proliferation rate across the examined cell-lines: 10 hematological cell-lines, WST-1; for cytotoxic effect compared to the parental non-conjugated drug: chimera vs its parent drug
Description: The above cells were cultured in RPMI medium (Gibco, Thermo Fisher Scientific Inc., USA). […] All media were supplemented with 10% heat-inactivated Fetal Bovine Serum (FBS, Biological industries, Israel), 2 mM glutamine (Biological industries, Israel) and 1% penicillin and streptomycin (Biological industries, Israel). Cells were cultured at 37° C. in a humidified incubator with 5% CO2.
Growth inhibition in hematological malignancies cell-lines was measured by tetrazolium WST-1 assay (Roche, Basel, Switzerland). Cells (1*10^4) were treated with various concentrations of the specific chimera or parental drug. After 48 h of incubation, 10 μl of WST-1 reagent was added to the plate and incubated for 1 h at 37° C., at which point the absorbance (450 nm) was measured in an ELISA plate reader (Synergy HTX multi-mode reader, Winooski, Vermont, USA).
MUTZ5 and MHH-CALL4; B-cell Acute lymphocytic leukemia (B-cell ALL) model. DND41; T-ALL model. KG-1a and OCI-AML-3; Acute myeloid leukemia (AML) model and HEL; erythroleukemia model.

MHH-CALL4 = experiment: WST-1 proliferation assay, MHH-CALL4; assay type: cell-based, human; conditions: WST-1, 48 hours of treatment
Description: (§1) Albert Pinhasov (Ariel University, Ariel, Israel). […] Granta cells were kindly provided by Prof.
(§2) Table 3 [resents the calculated IC50 values (μM) for each chimera in different hematological malignancies cell-lines. The proliferation rate was measured by WST-1 assay after 48 hours of treatment. The result shown for each concentration point represents the […]

Rec-1 = experiment: WST-1 proliferation assay, Rec-1; assay type: cell-based, human; conditions: WST-1, 48 hours of treatment
Description: as §1, §2

OCI-AML3 = experiment: WST-1 proliferation assay, OCI-AML3; assay type: cell-based; conditions: WST-1, 48 hours of treatment
Description: as §1, §2

MINO = experiment: WST-1 proliferation assay, MINO; assay type: cell-based, human; conditions: WST-1, 48 hours of treatment
Description: as §1, §2

MUTZ5 = experiment: WST-1 proliferation assay, MUTZ5; assay type: cell-based, human; conditions: WST-1, 48 hours of treatment
Description: as §1, §2

KG-1a = experiment: WST-1 proliferation assay, KG-1a; assay type: cell-based; conditions: WST-1, 48 hours of treatment
Description: as §1, §2

JEKO-1 = experiment: WST-1 proliferation assay, JEKO-1; assay type: cell-based, human; conditions: WST-1, 48 hours of treatment
Description: as §1, §2

HEL = experiment: WST-1 proliferation assay, HEL; assay type: cell-based, human; conditions: WST-1, 48 hours of treatment
Description: as §1, §2

GRANTA = experiment: WST-1 proliferation assay, GRANTA; assay type: cell-based; conditions: WST-1, 48 hours of treatment
Description: as §1, §2

DND41 = experiment: WST-1 proliferation assay, DND41; assay type: cell-based, human; conditions: WST-1, 48 hours of treatment
Description: as §1, §2

[3] = tested on: aggressive papillary thyroid cancer cells; experiment: Proliferation of aggressive papillary thyroid cancer cells; assay type: cell-based; conditions: 10 nM and 100 nM, with respect to DMSO control
Description: Chimera 9 (also referred to herein as Doxorubizen) was evaluated in two different concentrations (10 nM and 100 nM) on aggressive papillary thyroid cancer and with respect to the parent anticancer drug Doxorubicin.

[4] = tested on: Human primary anaplastic thyroid cancer (ATC) cells; experiment: Vitality/proliferation of primary anaplastic thyroid cancer cells; assay type: cell-based; conditions: 100 nM, 250 nM, 500 nM; 3, 5 and 7 days
Description: Human primary anaplastic thyroid cancer (ATC) cells were treated with chimera 9 (100 nM, 250 nM, and 500 nM), or Doxorubicin (100 nM, 250 nM, and 500 nM), or with vehicle, for 3, 5, and 7 days.

[5] = tested on: triple negative breast cancer (TNBC) MDA 231 cells
Description: Five-week-old athymic Nude-Foxn 1nu male mice (ENVIGO Labs, Nes Ziona, Israel) were subcutaneously inoculated on the dorsal left side with […] (1×10^6 cell) into nu/nu mice, 0.2 mL per mouse) and tumors allowed to establish over time. When tumor volume reached 100 mm^3, Doxorubicin (Dox) and Doxorubizen (Chimera 9) were administered intraperitoneally (ip). Animals were removed from an experiment if either of the following conditions were fulfilled: reduction of 20% or more body weight; tumor volume>0.55 cm^3. The tumor dimensions were measured using a Vernier caliper and the volume was calculated according to the equation: Volume (mm^3) ¼ length×width×width×½ three times per week. The in vivo experiments were approved by the Animal Ethics Committee (Authorization number IL-179-06-19).
Chimera 9 was also evaluated for its effect on breast cancer model. For this evaluation, […] nude female (6-8 weeks) mice (groups 1, 2, two mice per group, groups 3, 4, 5 three mice per group) were inoculated with triple negative breast cancer (TNBC) MDA 231 cells. Group 1 was used as the control for tumor growth. After 10 days, mice were […] (ip) administered with Doxorubicin (groups 2 and 4) and Chimera 9 (Doxorubizen) (groups 3 and 5) in the following regime: ip administration of 2.5 mg/kg Doxorubicin once per week (group 2) and three sequential days per week (group 4); ip administration of 3.5 mg/kg chimera 9 once per week (group 3) and three sequential days per week (group 5). Overall experiment carried out for 5 weeks and 4 days, when the tumor volumes for all the groups were monitored. Tumors were then resected and measured.

Row | Structure (SMILES) | effect on proliferation rate across the examined cell-lines [2] | IC50 (MHH-CALL4) [µM] | IC50 (Rec-1) [µM] | IC50 (OCI-AML3) [µM] | IC50 (MINO) [µM] | IC50 (MUTZ5) [µM] | IC50 (KG-1a) [µM] | IC50 (JEKO-1) [µM] | IC50 (HEL) [nM] | IC50 (GRANTA) [µM] | IC50 (DND41) [µM] | also measured
1 | COC(=O)N(C)/N=N/c1ccc(COC(=O)Nc2cc3c4c(cccc4c2)C(=O)N(CCN(C)C)C3=O)cc1 [Amonafidazene] |  |  |  |  |  |  |  |  |  |  |  | biological parameters in vitro and in vivo compared with parent Amonafide [1]: superior in all biological parameters
2 | CCc1c2c(nc3ccc(OCc4ccc(/N=N\N(C)C(=O)OC)cc4)cc13)-c1cc3c(c(=O)n1C2)COC(=O)[C@]3(O)CC [Chimera 1, (S,Z)-methyl3-(4-(((4,11-diethyl-4-hydroxy-3,14-dioxo-3,4,12,14-tetrahydro-1H pyrano [3′,4′:6,7]indolizino[1,2-b]quinolin-9-yl)oxy)methyl)phenyl)-1-methyltriaz-2-ene-1-carboxylate] | inhibited the proliferation rate in all the examined cell-lines |  |  |  |  |  |  |  |  |  |  | cytotoxic effect compared to the parental non-conjugated drug [2]: less than superior cytotoxic effect
3 | CCc1c2c(nc3ccc(OCc4ccc(N=NN(C)C(=O)OC)cc4)cc13)-c1cc3c(c(=O)n1C2)COC(=O)C3(O)CC (centres unmarked) [Chimera 1] |  | 1.2 | 0.59 | 12.3 | 0.63 | 3.02 | 1.04 | 0.36 | 550 | 8.42 | 1.99 | 
4 | COC(=O)N(C)/N=N/c1ccc(CNc2cccc3c2CN(C2CCC(=O)NC2=O)C3=O)cc1 (centres unmarked) [Chimera 2, (E)-methyl 3-(4-(((2-(2,6-dioxopiperidin-3-yl)-1-oxoisoindolin-4-yl)amino)methyl)phenyl)-1-methyltriaz-2-ene-1-carboxylate] | decreased the proliferation rate in at least 3 cell-lines |  |  |  |  |  |  |  |  |  |  | 
5 | COC(=O)N(C)/N=N/c1ccc(CNc2cccc3c2CN(C2CCC(=O)NC2=O)C3=O)cc1 (centres unmarked) [Chimera 2] |  | 24 | 14.2 | 17.1 | 5.7 | 47.5 | 46 | 22.8 | 1170 | > 50 | > 50 | 
6 | COC(=O)N(C)/N=N/c1ccc(COc2c(OC)cc([C@@H]3c4cc5c(cc4[C@@H](OC4O[C@@H]6CO[C@@H](C)O[C@H]6[C@H](O)[C@H]4O)[C@H]4COC(=O)[C@H]34)OCO5)cc2OC)cc1 (some centres unmarked) [Chimera 3] |  | > 50 | 23.7 | 10.2 | 30.3 | 34.8 | > 50 | 28.6 | 43100 | 42.1 | > 50 | cytotoxic effect compared to the parental non-conjugated drug [2]: did not show prevalence over Etoposide
7 | COC(=O)N(C)/N=N/c1ccc(COc2cc(/C=C\c3cc(OC)c(OC)c(OC)c3)ccc2OC)cc1 [Chimera 4, (E)-methyl3-(4-((2-methoxy-5-((Z)-3,4,5-trimethoxystyryl)phenoxy)methyl)phenyl)-1-methyltriaz-2-ene-1-carboxylate] | decreased the proliferation rate in at least 3 cell-lines |  |  |  |  |  |  |  |  |  |  | cytotoxic effect compared to the parental non-conjugated drug [2]: less than superior cytotoxic effect
8 | COC(=O)N(C)/N=N/c1ccc(COc2cc(/C=C\c3cc(OC)c(OC)c(OC)c3)ccc2OC)cc1 [Chimera 4] |  | 21.6 | 0.13 | > 50 | 0.69 | 39.8 | 4.72 | 13.8 | 1630 | 41.5 | 27.6 | 
9 | COC(=O)N(C)/N=N/c1ccc(Cn2cc(F)c(=O)[nH]c2=O)cc1 [Chimera 5, (E)-methyl3-(4-((5-fluoro-2,4-dioxo-3,4-dihydropyrimidin-1(2H)-yl)methyl)phenyl)-1-methyltriaz-2-ene-1-carboxylate] | decreased the proliferation rate in at least 3 cell-lines |  |  |  |  |  |  |  |  |  |  | 
10 | COC(=O)N(C)/N=N/c1ccc(Cn2cc(F)c(=O)[nH]c2=O)cc1 [Chimera 5] |  | 32.4 | 0.13 | 22.7 | 29.7 | 44.6 | 27.7 | > 50 | 2720 | > 50 | 30.9 | 
11 | COC(=O)N(C)/N=N/c1ccc(CSc2ncnc3nc[nH]c23)cc1 [Chimera 6, (E)-methyl 3-(4-(((7H-purin-6-yl)thio)methyl)phenyl)-1-methyltriaz-2-ene-1-carboxylate] | decreased the proliferation rate in at least 3 cell-lines |  |  |  |  |  |  |  |  |  |  | 
12 | COC(=O)N(C)/N=N/c1ccc(CSc2ncnc3nc[nH]c23)cc1 [Chimera 6] |  | 16.6 | 20.5 | 8.76 | 6.88 | 31 | 39.2 | 39.5 | 13500 | > 50 | > 50 | 
13 | COC(=O)N(C)/N=N/c1ccc(CNc2nc3ccc(OC(F)(F)F)cc3s2)cc1 [Chimera 7, (E)-methyl1-methyl-3-(4-(((6-(trifluoromethoxy)benzo [d]thiazol2yl)amino)methyl)phenyl) triaz-2-ene-1-carboxylate] | decreased the proliferation rate in at least 3 cell-lines |  |  |  |  |  |  |  |  |  |  | cytotoxic effect compared to the parental non-conjugated drug [2]: reduced proliferation rate of numerous cell-lines
14 | COC(=O)N(C)/N=N/c1ccc(CNc2nc3ccc(OC(F)(F)F)cc3s2)cc1 [Chimera 7] |  | 5.25 | 18 | 14.2 | 7.8 | 1.81 | 23 | > 50 | 2370 | 43 | 2.37 | 
15 | COC(=O)N(C)/N=N/c1ccc(CNc2cc3c4c(cccc4c2)C(=O)N(CCN(C)C)C3=O)cc1 [Chimera 8] |  | 36 | > 50 | 12.7 | 13.3 | 10.3 | 19.1 | 7.12 | 1970 | > 50 | 20.9 | 
16 | COc1cccc2c1C(=O)c1c(O)c3c(c(O)c1C2=O)C[C@@](O)(C(=O)CO)C[C@@H]3O[C@H]1C[C@H](N)[C@H](O)[C@H](C)O1 [Doxorubicin, reference compound] |  |  |  |  |  |  |  |  |  |  |  | proliferation of thyroid cancer cells [3]: no effect on cell proliferation; vitality/proliferation of primary human ATC cells [4]: reduced the vitality/proliferation of primary human ATC cells significantly; day of sacrifice due to large tumor volumes and severe animal conditions ([5]; Group 2: ip 2.5 mg/kg once per week): 12 days; day of death due to over toxication ([5]; Group 4: ip 2.5 mg/kg, three sequential days per week): 20 days
